Measurements taken from US20240301003A1 (NoNO Inc., priority 2021, published 2024).
Entries after “also recorded” stand apart in the source; their conditions may differ. Where two headings read alike, the source gives them in different places. Where a SMILES comes first, the peptide text is derived from it. Where no end group is shown, it is not given here. [ ]: non-standard residue; d: D form.

Legend:
[1] = rat plasma in vitro with tPA administered simultaneously
PSD95PDZ2 [2] = target: T1, PSD95PDZ2 (Homo sapiens, UniProt P78352); test: direct ELISA; biotinylated peptide (Bio-D-Tat-L-NA1); unit printed "um"
Target sequence in this assay (P78352 160-246): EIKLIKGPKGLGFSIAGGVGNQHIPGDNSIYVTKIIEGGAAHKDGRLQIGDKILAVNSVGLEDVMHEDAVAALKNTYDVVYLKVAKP

PSD-95 PDZ domain 2 [3] = target: PSD-95 PDZ domain 2 (UniProt P78352); test: competitive ELISA on coated PSD95PDZ2
histamine release [4] = details: rat, in vivo, iv, 7.6 mg/kg
Protocol: (§1) Histamine levels were quantified by using commercially available histamine ELISA assay kit (Histamine ELISA-H1531-K01, Eagle Bioscience). The plates were coated with the plasma samples (50 ul/well) incubated for 60 minutes at room temperature on an orbital shaker with medium frequency. Then 100 ul of enzyme conjugate was added to the wells and incubated for 20 minutes at room temperature. […] The reaction was stopped with 100 ul H2SO4. Absorbance was determined on an ELISA plate reader at 450 nm.
(§2) Blood samples were taken at pre-injection and at 0, 1, 2.5, 5, 10, 15, 30- and 60-minutes post dose and used for histamine levels quantification using commercially available kit.

tPA = tPA (Homo sapiens, UniProt P00750)
[5] = rat, in vivo, sc, 25 mg/kg
Protocol: (§3) Rats were anaesthetized in the supine position (Isoflurane 1.5--%) and allowed to breath spontaneously in 0.5 L/min 02. The left femoral artery was cannulated for blood sampling.
(§4) Test agents were prepared at the stablish concentration in a total volume of vehicle. Pulmonary instillation was performed by intubation with a 14G catheter connected to a 1 cc syringe and the test agent will be delivered through the catheter. Subcutaneous (SQ or SC) injection was injected into the area of the left flank, no more than 2 ml of total volume per site.
(§5) Each dose was evaluated in 3 rats for each administration strategy. […] For the first experiment, evaluating two different administration routes (SQ and PI), blood samples were collected at 8 different timepoints: Pre and at 7 additional times (1, 2.5, 5, 10, 15, 30, 60 min) post dose (250 ul/sample).
(§6) HPLC quantification: Plasma was separated from blood and stored at −−−80° C. until used. […] Standard curves for HPLC were generated from plasma samples spiked with known quantities of test agent.

[6] = MTD studies and renal toxicity in rats (creatinine, BUN)
PSD95PDZ2 [7] = target: T1, PSD95PDZ2; test: Competitive ELISA with biotinylated-NA-1; details: for IC50's relative to each other: FIG. 11, within the margin of error
Target sequence in this assay (P78352 160-246 limits assumed): as the sequence (P78352 160-246) above

PSD-95 PDZ domain 2 [8] = target: PSD-95 PDZ domain 2 (UniProt P78352); test: competitive ELISA on coated PSD95PDZ2, competitor biotinylated NA-1
plasmin = test: digested with plasmin
[9] = Plasma concentrations 15 minutes post subcutaneous dose (animals of the 3PVO model); type: in vivo, rat
Protocol: Unlike transient models of stroke in rats where much lower doses are required for neuroprotection, neuroprotection in 3 pial vessel occlusion models of stroke seems to require plasma concentrations of nerinetide at or above 2 ug/mL (or molar equivalent). […] Although the plasma levels continue to increase through about 3 hours then decrease, it is important to achieve rapid accumulation in the blood and brain for emergency indications like stroke. […] For pharmacokinetic sample analysis, calibration standard samples at concentrations of 0, 2.5, 5, 10, 15, 20 and 40 ug/mL of nerinetide were prepared by spiking 1 μL of the appropriate stock to 100 μL of plasma. […] Data is presented as mean±SD.

[10] = NA-3 pharmacokinetics after subcutaneous injection in non-human primates; type: in vivo, cynomolgus macaques; details: for plasma concentrations achieved: cynomolgus macaques
Excerpt: All values are presented as mean±SD; Statistical significance when compared to nerinetide alone is indicated as * (one-way ANOVA with post-hoc turkey's correction, *P<0.01). (Cmax: maximum plasma concentrations based on the extrapolated time-zero value; t1/2: half-life at terminal phase; tmax: time to reach Cmax; AUC0-t: area under the concentration-time curve from 0 to the last measured value; AUC0-inf: extrapolated area under the concentration-time curve from 0 to infinity; Cl: total clearance). Data is presented as mean±SD of three-four animals per group. The (-) represent data not reported due to an extrapolation of the AUC0-inf greater than 20% and R^2 lower than 0.9.

[11] = Physiologic parameters of NHP animals post NA-3 subcutaneous dose; type: in vivo, cynomolgus macaques
[12] = Pharmacokinetic analysis in rats (subcutaneous, pulmonary instillation, intravenous, intramuscular), HPLC
Protocol: as §3, §4, §5, §6

histamine release [13] = test: Histamine release in rats, plasma histamine ELISA; details: rats
Protocol: as §1, §2

PSD95PDZ2 [14] = target: T1, PSD95PDZ2; test: direct ELISA; biotinylated peptide (Bio-D-NA1)
Target sequence in this assay (P78352 160-246): as above

Sequence of PSD-95 PDZ domain 2 (P78352 160-246 limits assumed): as the sequence (P78352 160-246) above
Sequence of tPA (P00750 36-562): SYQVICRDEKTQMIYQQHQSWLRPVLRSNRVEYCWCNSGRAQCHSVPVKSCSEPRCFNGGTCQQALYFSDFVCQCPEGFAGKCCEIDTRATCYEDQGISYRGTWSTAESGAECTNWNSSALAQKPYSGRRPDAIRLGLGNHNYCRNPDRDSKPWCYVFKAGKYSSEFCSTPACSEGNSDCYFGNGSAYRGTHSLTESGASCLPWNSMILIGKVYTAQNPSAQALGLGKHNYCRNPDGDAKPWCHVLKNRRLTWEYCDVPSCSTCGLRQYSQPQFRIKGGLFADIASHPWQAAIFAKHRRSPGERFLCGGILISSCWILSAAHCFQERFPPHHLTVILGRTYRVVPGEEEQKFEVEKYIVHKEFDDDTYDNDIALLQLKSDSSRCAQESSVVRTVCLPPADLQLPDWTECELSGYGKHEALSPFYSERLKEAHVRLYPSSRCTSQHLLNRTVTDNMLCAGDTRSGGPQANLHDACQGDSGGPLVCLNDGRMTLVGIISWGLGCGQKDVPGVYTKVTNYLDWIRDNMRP

## yGrkkrrqrrrKLSSIESDV ([dY]G[dR][dK][dK][dR][dR][dQ][dR][dR][dR]KLSSIESDV)
[1]
  not cleaved: only negligible degradation when co-administered with tPA

## D-Tat-L-NA-1
PSD95PDZ2 [2]
  EC50: 0.139 µM

## D-NA-1 (peptide)
PSD-95 PDZ domain 2 [3]
  fold change of EC50 against NA-1 and D-Tat-L-2B9C: 10 fold

## CC[C@H](C)[C@H](NC(=O)[C@H](CO)NC(=O)[C@H](CO)NC(=O)[C@H](CC(C)C)NC(=O)[C@H](CCCCN)NC(=O)[C@@H](CCCNC(=N)N)NC(=O)[C@@H](CCCNC(=N)N)NC(=O)[C@@H](CCCNC(=N)N)NC(=O)[C@@H](CCC(N)=O)NC(=O)[C@@H](CCCNC(=N)N)NC(=O)[C@@H](CCCNC(=N)N)NC(=O)[C@@H](CCCCN)NC(=O)[C@@H](CCCCN)NC(=O)[C@@H](CCCNC(=N)N)NC(=O)CNC(=O)[C@H](N)Cc1ccc(O)cc1)C(=O)N[C@@H](CCC(=O)O)C(=O)N[C@@H](CO)C(=O)N[C@@H](CC(=O)O)C(=O)N[C@H](C(=O)O)C(C)C [D-Tat-L-2B9C] (HELM PEPTIDE1{[dY].G.[dR].[dK].[dK].[dR].[dR].[dQ].[dR].[dR].[dR].K.L.S.S.I.E.S.D.V}$$$$V2.0; N-terminus and C-terminus assumed)
Histamine release [4]
  histamine release: did result in significant histamine release
tPA
  degradation, control treatment with tPA: no degradation
[5]
  AUC compared with subcutaneous NA-1: increased Cmax and AUC relative to subcutaneous NA-1 but not to the same extent
  Cmax compared with subcutaneous NA-1: increased Cmax and AUC relative to subcutaneous NA-1 but not to the same extent
[6]; rats, subcutaneous 25 mg/kg
  creatinine versus the same dose level of NA-3: Much less creatinine is observed
PSD95PDZ2 [7]
  IC50: < 5 µM
  IC50's relative to each other: within a factor of two of each other
PSD95PDZ2 [7]; PSD-95 domain 2, FIG. 12
  EC50 (compared between peptides): about the same within experimental error

## D-TAT-L-2B9c (peptide)
PSD-95 PDZ domain 2 [8]
  ratio of IC50 against D-Tat-L-IESDV: < 2 fold

## YGRKKRRQRRRKLSSIESDV
plasmin
  fragment found: RRQRRRKLSSIESDV; also recorded: RQRRRKLSSIESDV; also recorded: QRRRKLSSIESDV; also recorded: RRKLSSIESDV; also recorded: RKLSSIESDV; also recorded: KLSSIESDV; also recorded: LSSIESDV

## CC[C@H](C)[C@H](NC(=O)[C@@H](CO)NC(=O)[C@@H](CO)NC(=O)[C@@H](CC(C)C)NC(=O)[C@@H](CCCCN)NC(=O)[C@@H](CCCNC(=N)N)NC(=O)[C@@H](CCCNC(=N)N)NC(=O)[C@@H](CCCNC(=N)N)NC(=O)[C@@H](CCC(N)=O)NC(=O)[C@@H](CCCNC(=N)N)NC(=O)[C@@H](CCCNC(=N)N)NC(=O)[C@@H](CCCCN)NC(=O)[C@@H](CCCCN)NC(=O)[C@@H](CCCNC(=N)N)NC(=O)CNC(=O)[C@H](N)Cc1ccc(O)cc1)C(=O)N[C@@H](CCC(=O)O)C(=O)N[C@@H](CO)C(=O)N[C@@H](CC(=O)O)C(=O)N[C@H](C(=O)O)C(C)C [NA-3, ygrkkrrqrrrklssIESDV] (HELM PEPTIDE1{[dY].G.[dR].[dK].[dK].[dR].[dR].[dQ].[dR].[dR].[dR].[dK].[dL].[dS].[dS].I.E.S.D.V}$$$$V2.0; N-terminus and C-terminus assumed)
[9]; 15 min post subcutaneous dose
  plasma concentration compared to nerinetide at the same dose: higher concentration at 15 min post-dose
[9]; single subcutaneous administration, 2.5, 7.6, 25 mg/kg
  relation between treatment dose and Cmax: dose proportionality between the treatment dose and the Cmax
[10]; subcutaneous 7.6 mg/Kg
  plasma concentrations achieved: able to achieve plasma concentrations higher than those demonstrated to be effective in humans
[10]; subcutaneous 25 mg/kg
  plasma concentrations achieved: able to achieve plasma concentrations higher than those demonstrated to be effective in humans
  Cmax and AUC versus nerinetide IV infusion: greater Cmax and AUC than nerinetide IV infusion
[11]
  drops in blood pressure compared to NA-1: No significant drops in blood pressure were observed
  safety issues in physiologic parameters compared to intravenous nerinetide: no significant safety issues were identified
[6]; minimum effective dose versus highest no observed adverse effect level
  therapeutic index: low
[6]; rats, subcutaneous 7.6 mg/kg or 2.6 mg/kg
  creatinine and BUN values out of range: No values out of range were observed
[6]; rats, subcutaneous 25 mg/kg
  persistence of creatinine and BUN increases: persisted through day 7
[6]; rats, subcutaneous 25 mg/kg or 50 mg/kg, day 1 post dose
  creatinine and BUN (blood urea nitrogen): dose-dependent increases in creatinine and BUN
[6]; rats, subcutaneous, versus 25 mg/kg NA-3, pre and after 1 day
  creatinine levels on reducing the dose 2-fold: significant reduction of the NA-3 creatinine levels
PSD95PDZ2 [7]
  IC50: < 5 µM
  IC50's relative to each other: within a factor of two of each other
[12]; pulmonary instillation
  plasma concentration and plasma exposure relative to intrapulmonary NA-1: higher plasma concentration and a greater plasma exposure
[12]; pulmonary instillation 25 mg/kg
  CMax after pulmonary instillation: higher CMax than for NA-1 or D-Tat-L-2B9C
[12]; subcutaneous 25 mg/kg
  AUC compared with subcutaneous NA-1: increased
  Cmax compared with subcutaneous NA-1: increased
[12]; subcutaneous 25, 8.3, 2.8 mg/kg
  dose dependence of Cmax and AUC: dose-dependent increasing linearly with dose
Histamine release [13]; 25 mg/kg SQ
  histamine release: resulted in histamine release but still much less than 7.6 mg/kg IV
Histamine release [13]; subcutaneous 2.8 mg/kg
  histamine release: did not result in significant histamine release
Histamine release [13]; subcutaneous 8.3 mg/kg
  histamine release: did not result in significant histamine release

## D-NA-1 NA1
PSD95PDZ2 [14]
  EC50: 1.38 µM
